# Test results as given in US20090234014A1, “Naphthalene-Disulfonamides Useful for the Treatment of Inflammation” (priority 2005, published 2009).
# Target: T1, mPGES-1 (Homo sapiens, UniProt O14684)
# T1 construct: made in house; host or cells: E. coli (membrane fraction)
# T1 sequence (O14684 1-152): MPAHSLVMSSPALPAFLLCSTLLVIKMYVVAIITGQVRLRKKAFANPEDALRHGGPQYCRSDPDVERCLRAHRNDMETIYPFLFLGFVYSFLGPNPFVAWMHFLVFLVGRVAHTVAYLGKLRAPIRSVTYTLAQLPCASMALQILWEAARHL
# Test: mPGES-1 assay: conversion of PGH2 to PGE2, PGE2 measured by HPLC
# Format: biochemical
# Conditions: mPGES-1 expressed in E. coli, membrane fraction; 25 min preincubation with inhibitor, 60 s with PGH2, room temperature; read-out: IC50 values
# Protocol: In the assay mPGES-1 catalyses the reaction where the substrate PGH2 is converted to PGE2. mPGES-1 is expressed in E. coli and the membrane fraction is dissolved in 20 mM NaPi-buffer pH 8.0 and stored at −80° C. In the assay mPGES-1 is dissolved in 0.1M KPi-buffer pH 7.35 with 2.5 mM glutathione. The stop solution consists of H2O/MeCN (7/3), containing FeCl2 (25 mM) and HCl (0.15 M). The assay is performed at room temperature in 96-well plates. Analysis of the amount of PGE2 is performed with reversed phase HPLC (Waters 2795 equipped with a 3.9×150 mm C18 column). The mobile phase consists of H2O/MeCN (7/3), containing TFA (0.056%), and absorbance is measured at 195 nm with a Waters 2487 UV-detector.
# The following is added chronologically to each well: • 1. 100 μL mPGES-1 in KPi-buffer with glutathione. Total protein concentration: 0.02 mg/mL. • 2. 1 μL inhibitor in DMSO. Incubation of the plate at room temperature for 25 minutes. • 3. 4 μL of a 0.25 mM PGH2 solution. Incubation of the plate at room temperature for 60 seconds. • 4. 100 μL stop solution. • 180 μL per sample is analyzed with HPLC.
row,SMILES,IC50 [µM]
1,"Cc1cc(C)c(NS(=O)(=O)c2cc(S(=O)(=O)Nc3c(C)cc(C)cc3C)c3cc(O)ccc3c2)c(C)c1 [Example 3, N^1,N^3-di(mesityl)-7-hydroxynaphthalene-1,3-disulfonamide]",1.1
2,"Cc1ccc(Cl)cc1NS(=O)(=O)c1cc(S(=O)(=O)Nc2cc(Cl)ccc2C)c2cc(O)ccc2c1 [Example 7, N^1,N^3-di(5-chloro-2-methylphenyl)-7-hydroxynaphthalene-1,3-disulfonamide]",1.2
3,"O=S(=O)(Nc1ccccc1C(F)(F)F)c1cc(S(=O)(=O)Nc2ccccc2C(F)(F)F)c2cc(O)ccc2c1 [Example 9, N^1,N^3-di(2-trifluoromethylphenyl)-7-hydroxynaphthalene-1,3-disulfonamide]",4.1
4,"Cc1cccc(C)c1NS(=O)(=O)c1cc(S(=O)(=O)Nc2c(C)cccc2C)c2ccccc2c1 [Example 11, N^1,N^3-di(2,6-xylyl)naphthalene-1,3-disulfonamide]",1.7
5,"Cc1c(Cl)cccc1NS(=O)(=O)c1cc(S(=O)(=O)Nc2cccc(Cl)c2C)c2ccccc2c1 [Example 15, N^1,N^3-di(3-chloro-2-methylphenyl)naphthalene-1,3-disulfonamide]",1.7

# More lines, now with the values ahead:
row,IC50 [µM],SMILES
1,1.3,"Cc1ccc(Cl)cc1NS(=O)(=O)c1cc(S(=O)(=O)Nc2cc(Cl)ccc2C)c2ccccc2c1 [Example 16, N^1,N^3-di(5-chloro-2-methylphenyl)naphthalene-1,3-disulfonamide]"
2,3.7,"Cc1ccc(NS(=O)(=O)c2cc(S(=O)(=O)Nc3ccc(C)cc3)c3ccccc3c2)cc1 [Example 20, N^1,N^3-di(p-tolyl)naphthalene-1,3-disulfonamide]"

# Same assay, conditions: mPGES-1 expressed in E. coli, membrane fraction; stated as 10 μM or below; read-out: concentration exhibiting 50% inhibition of mPGES-1
row,SMILES,IC50 [µM]
1,"O=S(=O)(Nc1ccccc1)c1cc(S(=O)(=O)Nc2ccccc2)c2cc(O)ccc2c1 [N^1,N^3-Diphenyl-7-hydroxynaphthalene-1,3-disulfonamide]",≤ 10
